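Five compound concentrations were applied to cells in 96-well plates for 48 hours; endpoints were derived by simple linear interpolation of the resulting dose-response curve. GI50 = concentration required for 50% inhibition of growth.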 Active and inactive are the calls of the source. Cut-off read from the data, not from the text of the source: active = GI50 up to about 1.1 µM and inactive = higher.
Legend:
Assay in all cases: NCI anticancer screen, dose series, 48 h
HCC 2998 = tested on: HCC 2998
UACC-62 = tested on: UACC-62
HOP-92 = tested on: HOP-92
SK-MEL-5 = tested on: SK-MEL-5
IGROV-1 = tested on: IGROV-1
LOX IMVI = tested on: LOX IMVI
NCI-H522 = tested on: NCI-H522
OVCAR-5 = tested on: OVCAR-5
NCI-H226 = tested on: NCI-H226
M14 = tested on: M14
HT-29 = tested on: HT-29
Malme-3M = tested on: Malme-3M
SW-620 = tested on: SW-620
OVCAR-3 = tested on: OVCAR-3
786-0 = tested on: 786-0
K562 = tested on: K562
RPMI-8226 = tested on: RPMI-8226
KM-20L2 = tested on: KM-20L2
OVCAR-4 = tested on: OVCAR-4
RXF 393 = tested on: RXF 393

Measured: GI50

COc1cc(OC(=O)c2ccccc2)cc2c1C(=O)C=CC2=O
inactive: HCC 2998 4.58 µM | UACC-62 13.8 µM | HOP-92 2.16 µM | SK-MEL-5 16 µM | IGROV-1 15.1 µM | LOX IMVI 12.3 µM | NCI-H522 5.31 µM | OVCAR-5 32.7 µM | NCI-H226 28.4 µM | M14 14.4 µM | HT-29 14.1 µM | Malme-3M 15.3 µM | SW-620 8.79 µM | OVCAR-3 5.32 µM | 786-0 8.39 µM | K562 1.88 µM | RPMI-8226 2.93 µM | KM-20L2 > 56.9 µM | OVCAR-4 5.4 µM | RXF 393 10.9 µM

COC1=CC(C2c3cc4c(cc3[C@@H](Nc3ccc(F)cc3)C3COC(=O)[C@H]23)OCO4)=CC(=O)C1=O (stereo not given in full)
inactive: HCC 2998 16.1 µM | UACC-62 5.68 µM | HOP-92 6.92 µM | SK-MEL-5 9.35 µM | IGROV-1 14.4 µM | LOX IMVI 7.78 µM | NCI-H522 4.33 µM | OVCAR-5 19.9 µM | NCI-H226 11.1 µM | M14 7.82 µM | HT-29 20.2 µM | Malme-3M 13.7 µM | SW-620 12.7 µM | OVCAR-3 27.7 µM | 786-0 3.29 µM | K562 10.4 µM | RPMI-8226 10.5 µM | KM-20L2 25.7 µM | OVCAR-4 39.8 µM | RXF 393 50.2 µM

From ChEMBL document CHEMBL1201862, “PubChem BioAssay data set” (2004)
